We go through six compounds from patent US5565447A, “Indole derivatives” (Laboratorios Almirall S.A., priority 1992, dated 1996).

Where two headings read alike, the source gives them in different places.

One series concerns the target T1, 5HT1A receptors (Rattus norvegicus, UniProt P19327).
T1 sequence (P19327 1-422): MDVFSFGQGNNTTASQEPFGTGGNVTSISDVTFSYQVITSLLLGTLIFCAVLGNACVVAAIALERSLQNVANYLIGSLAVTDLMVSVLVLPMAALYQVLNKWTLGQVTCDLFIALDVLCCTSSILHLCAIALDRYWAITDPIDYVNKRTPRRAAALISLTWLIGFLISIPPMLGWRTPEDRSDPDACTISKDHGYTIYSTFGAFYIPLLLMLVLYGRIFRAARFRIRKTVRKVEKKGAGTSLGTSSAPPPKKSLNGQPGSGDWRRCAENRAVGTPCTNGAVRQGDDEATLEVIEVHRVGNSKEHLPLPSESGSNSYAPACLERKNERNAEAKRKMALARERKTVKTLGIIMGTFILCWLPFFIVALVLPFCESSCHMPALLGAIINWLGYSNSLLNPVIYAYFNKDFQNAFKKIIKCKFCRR
Description: Binding to 5HT1A receptors (3H-8-OH-DPAT displacement, rat hippocampus membranes). How it is done: Binding to 5HT1A receptors
Assays were performed essentially as described by Gozlan et al (1983). Varying amounts of tested drugs were added to 1 mL final volume reaction mixtures that included 100 μg of rat hippocampus membrane protein, 0.5 nM ^3 H-8-OH-DPAT, 4 mM CaCl2, 0.1% ascorbic acid, 10 μM pargyline and 50 mM Tris HCl buffer, pH 7.4. After incubation at 25° C. for 30 minutes, samples were filtered under reduced pressure using glass fibre filters. The filters were washed with ice-cold buffer and dried. Non-specific binding was defined as that obtained in the presence of 10 μM 5HT. Radioactivity was quantified by scintillation counting and data was handled as described for the 5HT1D binding assay. (Gozlan H.; El Mestikawy S.; Pichat L.; Glowinski J. and Hamon M. (1983). Identification of presynaptic serotonin autoreceptors using a new ligand:^3 H-PAT. Nature 305, 140-142).

The target of series [1] is T2, 5HT1D receptors (Bos taurus, UniProt F1MGM3).
T2 construct: calf caudate nucleus membrane protein; from tissue; host or cells: calf caudate nucleus membranes
The series can be described thus: Binding to 5HT1D receptors (125I-GTI displacement, calf caudate nucleus membranes). How it is done: (§1) Binding to 5HT1D Receptors
(§2) Assays were performed essentially as described by Bruinvels et al. Varying amounts of tested drugs were added to 0.25 mL final volume reaction that included 100 μg of calf caudate nucleus membrane protein, 100 pM (Serotonin-5-0-Carboxymethyl-Glycyl[^125 I]Tyrosinamide (^125 I-GTI), 4 mM CaCl2 and 50 mM Tris HCl buffer, pH 7.4. After incubation at 37° C. for 30 minutes, samples were filtered under reduced pressure using glass fibre filters. The filters were washed with ice-cold buffer and dried. Non-specific binding was defined as that obtained in the presence of 10 μM 5HT. Trapped radioactivity was quantified using a gamma counter. Displacement curves were constructed and the concentration displacing 50% of radioligand was calculated for each tested compound using non-linear regression. Data from at least three different assays run in duplicate was averaged. (Bruinvels A. T.; Lery H.; Palacios J. M. and Hoyer D. 5-HT1D binding sites in various species: similar pharmacological profile in dog, monkey, calf, guinea-pig and human brain membranes. Naunyn-Schmiedeberg's Arch. Pharmacol. (in press)).

The subject of series [2] is 5HT1D receptors. The series is described as above. The settings on record: ratio of binding IC50 values, 3H-8-OH-DPAT over 125I-GTI. How it is done:
as §1, §2

For another series, the system named is Dog saphenous vein. Description: Dog saphenous vein isometric recording (contraction, pD2). It is filed as cell-based, beagle dog. Particulars: Canis lupus familiaris; isolated lateral saphenous vein rings, 37° C., in presence of 5-HT2, H1 and muscarinic antagonists; serotonin 1 μM as reference standard. How it is done:
Isometric recordings were performed essentially as described by Humphrey et al (1988). Briefly, lateral saphenous vein ring preparations (3 mm. wide) removed from anaesthetized beagle dogs were suspended under 2g. resting tension, in 30 mL organ baths containing Krebs at 37° C. The experiments were carried out in the presence of 5-HT2, H1 and muscarinic antagonists and serotonin 1 μM was used as quantitative reference standard.
(Humphrey P. P. A.; Feniuk W.; Perren M. J.; Connor H. E.; Oxford A. W .; Coates I. H. and Butina D. (1988). GR 43175, a selective agonist for the 5-HT1-like receptor in dog isolated saphenous vein. Br. J. Pharmac. 94, 1123-1132).

Series [3] concerns 5-HT1A receptor. The settings on record: attributed to affinity for 5-HT1A receptor; cited from earlier work.
Series [4] has as its system 5-HT1A receptor. The settings on record: background statement; cited from earlier work.
In another series the test system is 5-HT1D receptor. The settings on record: background statement; cited from earlier work.
The subject of a further series is "5-HT1 -like" receptors. Particulars: agonistic action at "5-HT1 -like" receptors; background statement; cited from earlier work.
Setting [5] is: 5HT1A, rat hippocampus membrane, 0.5 nM 3H-8-OH-DPAT, pH 7.4, 25° C., 30 minutes, read-out: Binding IC50 3H-8-OH-DPAT.
The mark [6] stands for this setting: 5HT1D, calf caudate nucleus membrane, 100 pM 125I-GTI, pH 7.4, 37° C., 30 minutes, read-out: Binding IC50 125I-GTI.

T2 sequence (F1MGM3 1-403): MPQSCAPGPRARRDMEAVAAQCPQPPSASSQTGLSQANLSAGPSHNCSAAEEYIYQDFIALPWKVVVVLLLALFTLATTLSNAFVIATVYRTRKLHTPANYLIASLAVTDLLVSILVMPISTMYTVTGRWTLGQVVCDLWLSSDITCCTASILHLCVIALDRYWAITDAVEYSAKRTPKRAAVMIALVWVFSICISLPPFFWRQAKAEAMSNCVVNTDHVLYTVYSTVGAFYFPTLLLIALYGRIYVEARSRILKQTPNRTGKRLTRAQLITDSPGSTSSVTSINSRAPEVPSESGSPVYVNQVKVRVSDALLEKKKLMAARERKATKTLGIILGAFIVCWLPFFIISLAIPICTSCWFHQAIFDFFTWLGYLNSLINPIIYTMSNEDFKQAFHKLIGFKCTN

`CN(C)CCc1c[nH]c2ccc(CS(=O)(=O)N3CCCC3)cc12.Cl` [Compound 1, 1-[[3-(2-dimethylaminoethyl)-5-indolyl]methanesulphonyl]-pyrrolidine hydrochloride]: the IC50 on 5HT1A receptors (setting [5]) came out at 825 ± 69 nM; on 5HT1D receptors [1] (setting [6]), 10.7 ± 0.4 nM. Besides, in the series with 5HT1D receptors [2], the 5HT1A/5HT1D was 77.1. The EC50 in the series with Dog saphenous vein was 871 nM.
On to `CN(C)CCc1c[nH]c2ccc(CS(=O)(=O)N3CCCCC3)cc12.Cl` [Compound 2, 1-[[3-(2-dimethylaminoethyl)-5-indolyl]methanesulphonyl]piperidine hydrochloride], for which the IC50 at 5HT1A receptors amounted to 340 ± 0.5 nM; on 5HT1D receptors [1], 6.9 ± 0.4 nM. Besides, the 5HT1A/5HT1D in the series with 5HT1D receptors [2] is reported as 49.3.
With `CCOC(=O)N1CCN(S(=O)(=O)Cc2ccc3[nH]cc(CCN(C)C)c3c2)CC1` [Compound 11], the IC50 is 850 ± 40 nM on 5HT1A receptors (setting [5]) and 3.2 ± 0.3 nM at 5HT1D receptors [1]. For the same compound, in the series with 5HT1D receptors [2], the 5HT1A/5HT1D is given as 265.6. The EC50 in the series on Dog saphenous vein is 339 nM.
On to `CNS(=O)(=O)Cc1ccc2[nH]cc(CCN(C)C)c2c1` [Sumatriptan, reference compound], for which the IC50 at 5HT1A receptors was found to be 460 ± 67 nM; on 5HT1D receptors [1] (setting [6]), 10.4 ± 1 nM. The “hypotension and other side effects” value in the series with 5-HT1A receptor [3] is “causes hypotension by a central nervous system action and other side effects”. Besides, the 5HT1A/5HT1D in the series with 5HT1D receptors [2] is listed as 44.2. Also, the EC50 with Dog saphenous vein is 871 nM. For the same compound, the “affinity for 5-HT1A receptor” value in the series on 5-HT1A receptor [4] was “very important affinity for 5-HT1A receptor”. Besides, the “affinity for 5-HT1D receptor” value in the series with 5-HT1D receptor was “high affinity for 5-HT1D receptor”.
As for `CN1C[C@H](C(=O)N[C@]2(C)O[C@@]3(O)[C@@H]4CCCN4C(=O)[C@H](Cc4ccccc4)N3C2=O)C=C2c3cccc4[nH]cc(c34)C[C@H]21` [ergotamine], the “vasoconstrictor action in the carotid vascular bed” value in the series with "5-HT1 -like" receptors is recorded as “vasoconstrictor action in the carotid vascular bed”.
For the compound `NCCc1c[nH]c2ccc(O)cc12` [serotonine, 5-Hydroxytryptamine], in the series with "5-HT1 -like" receptors, the “vasoconstrictor action in the carotid vascular bed” value is listed as “vasoconstrictor action in the carotid vascular bed”.

Broadly, the IC50 is the concentration needed to halve the response being measured. The EC50 is the concentration at which the effect is half-maximal.
